Reference: PubChem BioAssay (NCI)
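All cell lines were grown in 96-well plates and treated with compound for 48 hours. At the TGI there is no net growth.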

Experiments:
Assay in all cases: NCI anticancer screen, dose series, 48 h
[1] = system: SK-MEL-2 melanoma
[2] = system: KM12 colon
[3] = system: MDA-MB-231 breast
[4] = system: HOP-62 NSCLC
[5] = system: MOLT-4 leukemia
[6] = system: OVCAR-4 ovarian
[7] = system: MDA-N
[8] = system: LOX IMVI melanoma
[9] = system: SF-268 CNS
[10] = system: HCC-2998 colon
[11] = system: HT29 colon
[12] = system: RXF 393 renal
[13] = system: SK-OV-3 ovarian
[14] = system: 786-0 renal
[15] = system: IGROV1 ovarian
[16] = system: SF-539 CNS
[17] = system: ACHN renal
[18] = system: SR leukemia
[19] = system: BT-549 breast
[20] = system: HCT-15 colon
[21] = system: SN12C renal
[22] = system: NCI-H226 lung
[23] = system: RPMI-8226 leukemia
[24] = system: M14 melanoma
[25] = system: UO-31 renal
[26] = system: HL-60(TB) leukemia
[27] = system: HOP-92 NSCLC
[28] = system: HS 578T breast
[29] = system: CAKI-1 renal
[30] = system: OVCAR-8 ovarian
[31] = system: SK-MEL-28 melanoma
[32] = system: U251 CNS
[33] = system: SF-295 CNS
[34] = system: A549 NSCLC
[35] = system: HCT-116 colon
[36] = system: TK-10 renal
[37] = system: OVCAR-5 ovarian
[38] = system: T-47D breast
[39] = system: UACC-257 melanoma
[40] = system: MALME-3M melanoma
[41] = system: EKVX NSCLC
[42] = system: NCI/ADR-RES ovarian
[43] = system: SNB-19 CNS
[44] = system: MDA-MB-435
[45] = system: K-562 leukemia
[46] = system: CCRF-CEM leukemia
[47] = system: OVCAR-3 ovarian
[48] = system: SW-620 colon
[49] = system: NCI-H23 lung
[50] = system: DU-145 prostate
[51] = system: SK-MEL-5 melanoma
[52] = system: NCI-H522 lung
[53] = system: UACC-62 melanoma
[54] = system: COLO 205 colon
[55] = system: PC-3 prostate
[56] = system: SNB-75 CNS
[57] = system: MCF7 breast

## CC1=CC(C)(C)[C@H]2O[C@@]3(O)C[C@]4(C)[C@H]5C[C@@](C(C)C)(O[C@H]4c4ccoc4)O[C@H]4[C@]5(C3)O[C@@]1(O)[C@]24O
[1]
  TGI: > 100 µM
[2]
  TGI: > 100 µM
[3]
  TGI: > 100 µM
[4]
  TGI: 82 µM
[5]
  TGI: > 100 µM
[6]
  TGI: > 100 µM
[7]
  TGI: > 100 µM
[8]
  TGI: > 100 µM
[9]
  TGI: > 100 µM
[10]
  TGI: > 100 µM
[11]
  TGI: > 100 µM
[12]
  TGI: > 100 µM
[13]
  TGI: > 100 µM
[14]
  TGI: > 100 µM
[15]
  TGI: > 100 µM
[16]
  TGI: > 100 µM
[17]
  TGI: > 100 µM
[18]
  TGI: > 100 µM
[19]
  TGI: > 100 µM
[20]
  TGI: > 100 µM
[21]
  TGI: > 100 µM
[22]
  TGI: > 100 µM
[23]
  TGI: > 100 µM
[24]
  TGI: > 100 µM
[25]
  TGI: > 100 µM
[26]
  TGI: > 100 µM
[27]
  TGI: > 100 µM
[28]
  TGI: > 100 µM
[29]
  TGI: > 100 µM
[30]
  TGI: > 100 µM
[31]
  TGI: > 100 µM
[32]
  TGI: > 100 µM
[33]
  TGI: > 100 µM
[34]
  TGI: > 100 µM
[35]
  TGI: > 100 µM
[36]
  TGI: > 100 µM
[37]
  TGI: > 100 µM
[38]
  TGI: > 100 µM
[39]
  TGI: > 100 µM
[40]
  TGI: > 100 µM
[41]
  TGI: > 100 µM
[42]
  TGI: > 100 µM
[43]
  TGI: > 100 µM
[44]
  TGI: > 100 µM
[45]
  TGI: > 100 µM
[46]
  TGI: > 100 µM
[47]
  TGI: > 100 µM
[48]
  TGI: > 100 µM
[49]
  TGI: > 100 µM
[50]
  TGI: > 100 µM
[51]
  TGI: > 100 µM
[52]
  TGI: 45.8 µM
[53]
  TGI: > 100 µM
[54]
  TGI: > 100 µM
[55]
  TGI: > 100 µM
[56]
  TGI: 64.6 µM
[57]
  TGI: > 100 µM
